According to patent US20090143426A1, “Synthesis of 1,3,6-trisubstituted-2-carboxyquinol-4-ones as selective ET A antagonists and their use as medicaments” (priority 2007, published 2009):
pIC50: −log10 of the molar value. Entries after “also recorded” stand apart in the source; their conditions may differ.

How the values were obtained:
BioXTal ET-A receptor = target: T1, BioXTal ET-A receptor (Homo sapiens, UniProt P25101); experiment: In vitro competitive binding assay with [125I]Tyr13-ET-1, ET-A receptor; conditions: [125I]ET-1 224 pM; 10 ug receptor; 30 to 32° C., two hours; triplicate; read-out: IC50, inhibition of specific [125I] ET-1 binding to ETA receptor
T1 construct: purchased BioXTal
T1 sequence (P25101 21-427): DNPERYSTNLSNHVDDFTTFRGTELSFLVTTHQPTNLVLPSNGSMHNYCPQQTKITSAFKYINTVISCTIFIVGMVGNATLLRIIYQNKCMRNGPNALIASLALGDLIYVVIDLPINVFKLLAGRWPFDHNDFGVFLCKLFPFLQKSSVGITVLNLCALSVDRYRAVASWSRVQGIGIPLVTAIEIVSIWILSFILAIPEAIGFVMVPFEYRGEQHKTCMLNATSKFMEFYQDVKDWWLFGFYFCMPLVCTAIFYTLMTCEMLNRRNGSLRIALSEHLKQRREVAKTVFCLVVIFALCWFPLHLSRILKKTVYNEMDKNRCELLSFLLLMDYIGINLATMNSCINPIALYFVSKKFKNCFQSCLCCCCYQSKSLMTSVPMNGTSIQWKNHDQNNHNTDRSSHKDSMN
Description: (§1) In vitro binding assay. Varying concentrations of HJP272, ranging from 10^3 to 10^8 pM, were incubated with 10 ug of BioXTal ET-A or ET-B receptor and 224 pM [^125I]Tyr13-ET-1 in 50 mM NaH2PO4, 150 mM NaCl, 5 mM EDTA, and 0.1% bovine serum albumin.
(§2) For total binding, radio labeled ET-1 and receptor were incubated without the receptor antagonist. For non-specific binding, 300 nM cold ET-1 was substituted for the antagonist. Assay mixtures were incubated at 30 to 32° C. for two hours and the assays were stopped by the addition of cold buffer. Assay mixtures were then quickly filtered through GF/C Whatman filters and washed with cold assay buffer in a Millipore sampling manifold. Filters were collected and counts per minute of the bound radio labeled ET-1 were read by a Packard Cobra Gamma Counter (Perkin Elmer).
(§3) Percent specific binding was calculated for all data points. Assays containing ET-A receptor were run in triplicate and assays containing the ET-B receptor were run in duplicate.

[1] = test system: BALF neutrophils in female Syrian hamsters; experiment: Animal model of smoking related acute lung injury (ET-1 plus cigarette smoke, BALF neutrophils); assay type: in vivo, hamster; conditions: 500 μg IP 60 minutes before 5 μg ET-1, then cigarette smoke two hours, three days
Description: Animal models of smoking related acute lung injury. The Animal Care and Utilization Committee of the College of Pharmacy and Allied Health Professions, St. John's University approved all experimental protocols, and the research was conducted according to the requirements of NIH Guide for the Care and Use of Laboratory Animals (revised 1996).
Female Syrian hamsters, weighing approximately 100 g each, were divided into two groups as follows: Group 1 was treated IP with: 1) 500 μg of HJP272 in 0.5 mL Na2CO3 and 2) 5 μg ET-1 in 0.25 mL PBS 60 minutes later, followed immediately by exposure to cigarette smoke for two hours. This regimen was continued for three days.
Group 2 was treated IP with: 1) 0.5 mL Na2CO3 and 2) […] ET-1 in 0.25 mL PBS 60 minutes later, followed immediately by exposure to cigarette smoke for three consecutive days as per Group 1. The animals were placed in a 70×48×38 cm chamber and passively exposed to cigarette smoke produced by a TE-10 smoking machine (Teague Enterprises, Davis, Calif.) that simultaneously burned two filtered research-grade cigarettes (type 2R4F, University of Kentucky). Smoke from both the filtered and burning ends of the cigarette was collected, and then mixed together with air in a separate chamber, thus simulating second-hand smoke exposure. Each cigarette was puffed once per minute for two seconds at a flow rate of 1.05 LPM, yielding 35 mL of smoke. This cycle was repeated nine times before ejecting the cigarette and loading a new one. Proper flow rate was maintained by a vacuum pump that established negative pressure at the exhaust port. Total smoke particulates averaged 87 mg per cubic meter.
All animals were sacrificed 24 hours after completing the smoke exposure regimen to maximize the neutrophil population in the lung, and the percentage of BALF neutrophils was measured (van der Vaart et al. 2004)

BioXTal ET-B receptor = target: T2, BioXTal ET-B receptor (Homo sapiens, UniProt P24530); experiment: In vitro competitive binding assay with [125I]Tyr13-ET-1, ET-B receptor; conditions: selectivity ETA versus ETB; ET-B assays in duplicate
T2 construct: purchased BioXTal
T2 sequence (P24530 27-442): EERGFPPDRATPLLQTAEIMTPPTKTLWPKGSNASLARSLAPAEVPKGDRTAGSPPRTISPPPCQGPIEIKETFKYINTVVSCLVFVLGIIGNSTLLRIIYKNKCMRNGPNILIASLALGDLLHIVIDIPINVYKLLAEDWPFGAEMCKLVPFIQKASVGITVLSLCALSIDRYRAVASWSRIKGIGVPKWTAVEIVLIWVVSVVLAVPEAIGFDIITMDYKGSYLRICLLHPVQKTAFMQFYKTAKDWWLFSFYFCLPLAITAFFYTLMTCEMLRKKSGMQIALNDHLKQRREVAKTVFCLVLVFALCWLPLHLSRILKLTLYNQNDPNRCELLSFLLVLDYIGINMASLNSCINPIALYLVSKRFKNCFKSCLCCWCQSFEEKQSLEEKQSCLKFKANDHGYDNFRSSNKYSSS
Description: as §1, §2, §3

[2] = test system: LPS-induced (infection-associated) preterm labor and delivery in pregnant C57B1/6 mice; experiment: Animal model of preterm birth (LPS-injected timed pregnant mice); assay type: in vivo, mouse
Description: Animal models of preterm birth. The Animal Care and Utilization Committee of the College of Pharmacy and Allied Health Professions, St. John's University approved all experimental protocols, and the research was conducted according to the requirements of NIH Guide for the Care and Use of Laboratory Animals (revised 1996). C57B1/6 mice from Taconic Laboratory were used for all experiments. Animals were housed in plastic cages in a temperature-controlled animal facility with alternating 12:12 hour light-dark cycles, with ad libitum access to food and water.
Nineteen timed pregnant C57B1/6 E15.5 mice were injected with LPS in 0.5 ml PBS at a concentration of 50 mg/kg. These mice were randomly assigned to two groups. Group A mice (n=8) received 50 mg/kg HJP272 dissolved in PBS and Group B mice (n=11) received PBS only.
All treatments were administered by ip injection 10 hours after LPS injection. Mice were continually monitored and the time of delivery of all pups, as well as the number of pups delivered, was recorded. All mice were autopsied at the end of the experiment to confirm pregnancy and to determine the number of pups retained in utero.

[3] = test system: attachment of neutrophils to colonic submucosal venules; conditions: inflammatory bowel disease; Anthoni et al. 2006; cited from earlier work

SMILES	pIC50 (BioXTal ET-A receptor)	melting point [°C]	effect on the ET-1-induced rise of BALF neutrophils (words) [1]	effect on the ET-1-induced rise of BALF neutrophils (words) ([1]; listed as ETA-RA)	effect on the ET-1-induced rise of BALF neutrophils (words) ([1]; listed as HJP-272)	ratio of IC50 for the endothelin B receptor to IC50 for the endothelin A receptor (BioXTal ET-B receptor)	percent of prematurely delivered pups ([2]; E15.5 mice, LPS 50 mg/kg, 50 mg/kg ip 10 hours after LPS, PBS control 39.7) [%]	mice that delivered prematurely ([2]; E15.5 mice, LPS 50 mg/kg, 50 mg/kg ip 10 hours after LPS, control 11 out of 11)	control of premature labor and delivery ([2]; LPS followed by compound versus LPS followed by vehicle)	prevention of premature expulsion of pups ([2]; LPS followed by compound versus LPS followed by vehicle, P<0.0001)	average delivery time (T) ([2]; the six treated mice that delivered, LPS 50 mg/kg, PBS control T10.9+/−0.61, p<0.0001) [h]	craniofacial anomalies in pups ([2]; transient exposure, late in gestation)	attachment of neutrophils to colonic submucosal venules [3]
CCc1cc2c(cc1Cn1c(C(=O)O)c(Cc3cccc(C(=O)O)c3)c(=O)c3cc(O)ccc31)OCO2 [HJP272, 3-(3-carboxybenzyl)-1-((6-ethylbenzo[d][1,3]dioxol-5-yl)methyl)-6-hydroxy-4-oxo-1,4-dihydroquinoline-2-carboxylic acid]	7.15	206 to 208	reversed	reversed this effect	reversed	219.2	30.0	six out of eight	controlled preterm labor and delivery in our mouse model of infection-associated preterm labor very effectively; also recorded: significantly better control of premature delivery	significantly greater prevention of premature expulsion of pups	15.0 ± 1.8	None of the pups in the work presented here demonstrated such abnormalities	
COc1ccccc1Oc1c(NS(=O)(=O)c2ccc(C(C)(C)C)cc2)nc(-c2ncccn2)nc1OCCO [bosentan]													markedly reduced attachment
